The text below walks through data of US20250145601A1, “NOVEL BICYCLIC COMPOUNDS AS RAD51 INHIBITORS” (SATYA THERAPEUTICS, INC., priority 2022, published 2025).

The subject of the assay is MDA MB 231 cells. In words: Antiproliferation assay in MDA MB 231 cells (Cell Titer Glo). The assay is classed as cell-based. To be noted: Homo sapiens, MDA-MB-231, 216 h, MDAMB231 cell line, 9 day treatment, racemic compounds (Table 2). The method, then:
Antiproliferation Assay in MDA MB 231 Cells MDA MB 231 cells were seeded in 96 well plate at a seeding density of 250 cells/well. The cells were allowed to settle overnight under standard incubator conditions (37° C., 5% CO2). Next day treatment with increasing dose of test compounds and reference compounds were done to the respective wells and the cells were further incubated under standard cell culture conditions for another 4 days. On the 5th day, media was replenished with fresh treatment and cells were incubated for a total of 9 day treatment period. On the day of termination, appropriate volume of Cell Titer Glo reagent was added to the treatment (and control) wells and the plates were kept on a plate shaker @300 RPM for 15 min. Luminiscence reading (RLU) was […] RLU is directly proportional to ATP content and is directly related to number of metabolically active cells in the respective well. Calculation: a. Blank Correction: RLU of the Wells Containing No Cells is Considered as Blank and Subtracted from all RLU of the Treated and Control Wells [formula]
As to `CCC(=O)N1N=C(c2c(C)c3ccsc3[nH]c2=O)CC1c1ccc(C)s1` (stereo not drawn) [Example 41, 5-(5-(5-methylthiophen-2-yl)-1-propionyl-4,5-dihydro-1H-pyrazol-3-yl)-4-methylthieno[2,3-b]pyridin-6(7H)-one], the inhibition at 10 µM is not below 50%.

For `CCC(=O)N1N=C(c2c(C)c3ccsc3[nH]c2=O)CC1c1ccc(C(F)(F)F)cc1` (stereo not drawn) [Example 42, 4-methyl-5-(1-propionyl-5-(4-(trifluoromethyl)phenyl)-4,5-dihydro-1H-pyrazol-3-yl)thieno[2,3-b]pyridin-6(7H)-one], the inhibition at 10 µM was not below 50%.

As to `CCC(=O)N1N=C(c2c(C)c3ccsc3[nH]c2=O)CC1c1ccc(C(F)F)cc1` (stereo not drawn) [Example 43, 5-(5-(4-(difluoromethyl)phenyl)-1-propionyl-4,5-dihydro-1H-pyrazol-3-yl)-4-methylthieno[2,3-b]pyridin-6(7H)-one], the inhibition at 10 µM is not below 50%.

Regarding `CCC(=O)N1N=C(c2c(C)c3ccsc3[nH]c2=O)CC1c1ccc(CC)cc1` (stereo not drawn) [Example 44, 5-(5-(4-ethylphenyl)-1-propionyl-4,5-dihydro-1H-pyrazol-3-yl)-4-methylthieno[2,3-b]pyridin-6(7H)-one], the inhibition at 10 µM was not below 50%.

The compound `CCC(=O)N1N=C(c2c(C)c3ccsc3[nH]c2=O)CC1c1ccc(N2CCCC2)cc1` (stereo not drawn) [Example 46, 4-methyl-5-(1-propionyl-5-(4-(pyrrolidin-1-yl)phenyl)-4,5-dihydro-1H-pyrazol-3-yl)thieno[2,3-b]pyridin-6(7H)-one] yielded an inhibition at 10 µM not below 50%.

Compound `CCC(=O)N1N=C(c2c(C)c3ccsc3[nH]c2=O)CC1c1ccc(C2CC2)cc1` (stereo not drawn) [Example 47, 5-(5-(4-cyclopropylphenyl)-1-propionyl-4,5-dihydro-1H-pyrazol-3-yl)-4-methylthieno[2,3-b]pyridin-6(7H)-one] showed an inhibition at 10 µM of less than 50%.

With `CCC(=O)N1N=C(c2c(C)c3ccsc3[nH]c2=O)CC1c1csc(C)n1` (stereo not drawn) [Example 48, 4-methyl-5-(5-(2-methylthiazol-4-yl)-1-propionyl-4,5-dihydro-1H-pyrazol-3-yl)thieno[2,3-b]pyridin-6(7H)-one], the inhibition at 10 µM was less than 50%.

In the case of `CCC(=O)N1N=C(c2c(C)c3ccsc3[nH]c2=O)CC1c1ccc(C(C)C)cc1` (stereo not drawn) [Example 49, 5-(5-(4-isopropylphenyl)-1-propionyl-4,5-dihydro-1H-pyrazol-3-yl)-4-methylthieno[2,3-b]pyridin-6(7H)-one], the inhibition at 10 µM is less than 50%.

Turning to `CCC(=O)N1N=C(c2c(C)c3ccsc3[nH]c2=O)CC1c1cnc(C)cc1C` (stereo not drawn) [Example 50, 5-(5-(4,6-dimethylpyridin-3-yl)-1-propionyl-4,5-dihydro-1H-pyrazol-3-yl)-4-methylthieno[2,3-b]pyridin-6(7H)-one], the inhibition at 10 µM was less than 50%.

`CCC(=O)N1N=C(c2c(C)c3ccsc3[nH]c2=O)CC1c1cnc(C)nc1` (stereo not drawn) [Example 51, 4-methyl-5-(5-(2-methylpyrimidin-5-yl)-1-propionyl-4,5-dihydro-1H-pyrazol-3-yl)thieno[2,3-b]pyridin-6(7H)-one] yielded an inhibition at 10 µM of less than 50%.

Compound `CCC(=O)N1N=C(c2c(C)c3ccsc3[nH]c2=O)CC1c1cnc(C)c(Cl)c1` (stereo not drawn) [Example 52, 5-(5-(5-chloro-6-methylpyridin-3-yl)-1-propionyl-4,5-dihydro-1H-pyrazol-3-yl)-4-methylthieno[2,3-b]pyridin-6(7H)-one] had an inhibition at 10 µM not below 50%.

In the case of `CCC(=O)N1N=C(c2c(C)c3ccsc3[nH]c2=O)CC1c1cnc(C)cc1OC` (stereo not drawn) [Example 53, 5-(5-(4-methoxy-6-methylpyridin-3-yl)-1-propionyl-4,5-dihydro-1H-pyrazol-3-yl)-4-methylthieno[2,3-b]pyridin-6(7H)-one], the inhibition at 10 µM is less than 50%.

As to `CCC(=O)N1N=C(c2c(C)c3ccsc3[nH]c2=O)CC1c1cnc(C)c(C)c1` (stereo not drawn) [Example 54, 5-(5-(5,6-dimethylpyridin-3-yl)-1-propionyl-4,5-dihydro-1H-pyrazol-3-yl)-4-methylthieno[2,3-b]pyridin-6(7H)-one], the inhibition at 10 µM was not below 50%.

`CCC(=O)N1N=C(c2c(C)c3ccsc3[nH]c2=O)CC1c1cnc(C)c(F)c1` (stereo not drawn) [Example 55, 5-(5-(5-fluoro-6-methylpyridin-3-yl)-1-propionyl-4,5-dihydro-1H-pyrazol-3-yl)-4-methylthieno[2,3-b]pyridin-6(7H)-one] came in with an inhibition at 10 µM not below 50%.

The compound `CCC(=O)N1N=C(c2c(C)c3ccsc3[nH]c2=O)CC1c1cnc(C)cc1Cl` (stereo not drawn) [Example 56, 5-(5-(4-chloro-6-methylpyridin-3-yl)-1-propionyl-4,5-dihydro-1H-pyrazol-3-yl)-4-methylthieno[2,3-b]pyridin-6(7H)-one] showed an inhibition at 10 µM not below 50%.

`CCC(=O)N1N=C(c2c(C)c3ccsc3[nH]c2=O)CC1c1cnc(C)s1` (stereo not drawn) [Example 57, 4-methyl-5-(5-(2-methylthiazol-5-yl)-1-propionyl-4,5-dihydro-1H-pyrazol-3-yl)thieno[2,3-b]pyridin-6(7H)-one]: the inhibition at 10 µM is not below 50%.

In the case of `CCC(=O)N1N=C(c2c(C)c3ccsc3[nH]c2=O)CC1C1CCCCC1` (stereo not drawn) [Example 58, 5-(5-cyclohexyl-1-propionyl-4,5-dihydro-1H-pyrazol-3-yl)-4-methylthieno[2,3-b]pyridin-6(7H)-one], the inhibition at 10 µM is less than 50%.

Compound `CCC(=O)N1N=C(c2c(C)c3cc(Cl)ccc3[nH]c2=O)CC1c1ccc(C)cc1` (stereo not drawn) [Example 59, 6-chloro-4-methyl-3-(1-propionyl-5-(p-tolyl)-4,5-dihydro-1H-pyrazol-3-yl)quinolin-2(1H)-one] registered an inhibition at 10 µM not below 50%.

Compound `CCC(=O)N1N=C(c2c(C)c3nc(Cl)ccc3[nH]c2=O)CC1c1ccc(C)cc1` (stereo not drawn) [Example 61, 6-chloro-4-methyl-3-(1-propionyl-5-(p-tolyl)-4,5-dihydro-1H-pyrazol-3-yl)-1,5-naphthyridin-2(1H)-one] had an inhibition at 10 µM not below 50%.

`CC(=O)N1N=C(c2c(C)c3ccsc3[nH]c2=O)CC1c1ccc(C)cc1` (stereo not drawn) [Example 62, 5-(1-acetyl-5-(p-tolyl)-4,5-dihydro-1H-pyrazol-3-yl)-4-methyl-7,7a-dihydrothieno[2,3-b]pyridin-6(7H)-one] displayed an inhibition at 10 µM not below 50%.

For the compound `Cc1ccc(C2CC(c3c(C)c4ccsc4[nH]c3=O)=NN2C(=O)C(C)C)cc1` (stereo not drawn) [Example 63, 5-(1-isobutyryl-5-(p-tolyl)-4,5-dihydro-1H-pyrazol-3-yl)-4-methyl-7,7a-dihydrothieno[2,3-b]pyridin-6(7H)-one], the inhibition at 10 µM was not below 50%.

With `Cc1ccc(C2CC(c3c(C)c4ccsc4[nH]c3=O)=NN2C(=O)C(F)(F)F)cc1` (stereo not drawn) [Example 64, 4-methyl-5-(5-(p-tolyl)-1-(2,2,2-trifluoroacetyl)-4,5-dihydro-1H-pyrazol-3-yl)-7,7a-dihydrothieno[2,3-b]pyridin-6(7H)-one], the inhibition at 10 µM was not below 50%.

Consider `CCC(=O)N1N=C(c2c(C)c3ccsc3[nH]c2=O)CC1c1ccc(C)cc1Cl` (stereo not drawn) [Example 65, 5-(5-(2-chloro-4-methylphenyl)-1-propionyl-4,5-dihydro-1H-pyrazol-3-yl)-4-methylthieno[2,3-b]pyridin-6(7H)-one], for which the inhibition at 10 µM was not below 50%.

`CCC(=O)N1N=C(c2c(C)c3cc(Cl)cnc3[nH]c2=O)CC1c1ccc(C)cc1` (stereo not drawn) [Example 67, 6-chloro-4-methyl-3-(1-propionyl-5-(p-tolyl)-4,5-dihydro-1H-pyrazol-3-yl)-1,8-naphthyridin-2(1H)-one] yielded an inhibition at 10 µM of less than 50%.
